Reference: patent publication US20220062299A1, “USE OF GLUCOCORTICOID STEROIDS IN PREVENTING AND TREATING CONDITIONS OF MUSCLE WASTING, AGING AND METABOLIC DISORDER” (NORTHWESTERN UNIVERSITY, priority 2018, published 2022)

Tested on: Wildtype (WT) mice fed high-fat chow
Experiment: Diet-induced obesity, wildtype mice on high-fat chow, 8 weeks
Format: in vivo, mouse
Experimental: Glucose was measured in blood (first drop from tail venipuncture) or serum (5 μl of 1:2 dilution) with an AimStrip Plus glucometer system (Germaine Laboratories, San Antonio, Tex.) and expressed as mg/dl values. Lactate was measured in blood (second drop from tail venipuncture) or serum (5 μl of 1:2 dilution) with a Lactate Plus reader (Nova Biomedical, Waltham, Mass.) and expressed as mM values. Fasting glycemia was measured in mice after 4 hours fasting (7 AM-11 AM). Glucose, insulin and pyruvate tolerance tests were conducted after 4 hours fasting in individual cages immediately after baseline fasting glucose monitoring. Mice were injected with either 1 g/kg glucose (#D8375-1 g; Millipore Sigma, St Louis, Mo.), or 0.5 U/kg insulin (#12585014; Thermo Fisher, Waltham, Mass.), or 2.5 g/kg pyruvate (#P5280-25 g; Millipore Sigma, St Louis, Mo.) in 200 μl intraperitoneal injections, and glucose was then monitored by tail venipuncture at 10 min, 20 min, 30 min, 60 min, 120 min after injection. All glucose and pyruvate tolerance tests were conducted blinded to treatment groups.
MRI scan. Magnetic resonance imaging (MRI) scans to determine fat and lean mass ratios (% of total body weight) were conducted in non-anesthetized, non-fasted mice at 2 PM using the EchoMRI-100H Whole Body Composition analyzer (EchoMRI, Houston, Tex.). Mice were weighed immediately prior to MRI scan. Before each measurement session, system was calibrated using the standard internal calibrator tube (canola oil). Mice were typically scanned in sample tubes dedicated to mice comprised between 20 g and 40 g body mass. Data were collected through built-in software EchoMRI version 140320. Data were analyzed when hydration ratio >85%. MRI scans were conducted blinded to treatment groups.
Muscle function, whole-body plethysmography, echocardiography. Forelimb grip strength was monitored using a meter (Cat #1027SM; Columbus Instruments, Columbus, Ohio) blinded to treatment groups. Animals performed ten pulls with 5 seconds rest on a flat surface between pulls. Immediately before sacrifice, in situ tetanic force from tibialis anterior muscle was measured using a Whole Mouse Test System (Cat #1300A; Aurora Scientific, Aurora, ON, Canada) with a 1N dual-action lever arm force transducer (3000-LR, Aurora Scientific, Aurora, ON, Canada) in anesthetized animals (0.8 I/min of 1.5% isoflurane in 100% O2). Tetanic isometric contraction was induced with following specifications: initial delay, 0.1 sec; frequency, 200 Hz; pulse width, 0.5 msec; duration, 0.5 sec; using 100 mA stimulation (Quattrocelli et al., 2015). Length was adjusted to a fixed baseline of 50 mN resting tension for all muscles/conditions. Fatigue analysis was conducted by repeating tetanic contractions every 10 seconds until complete exhaustion of the muscle (50 cycles). Time of contraction was assessed as time to max tetanic value within the 0.0-0.5 sec range of each tetanic contraction, while time of relaxation was assessed as time to 90% min tetanic value within the 0.5-0.8 sec range of every tetanus. […] Data was recorded for a total of 15 minutes broken into 3 consecutive 5-minute periods. […] Cardiac function was assessed by echocardiography, which was conducted under anesthesia (0.8 L/min of 1.5% vaporized isoflurane in 100% O2) on mice between 2 and 5 days before sacrifice. […]

C[C@]12C=CC(=O)C=C1CC[C@@H]1[C@@H]2C(=O)C[C@@]2(C)[C@H]1CC[C@]2(O)C(=O)CO [prednisone, Prednisone]
gain of hyperglycemia (fasting blood glucose over time) (weekly prednisone): reduced | lean mass retention (weekly prednisone): improved | gain of body weight and fat mass (weekly prednisone 1 mg/kg i.p., vs vehicle): slightly but significantly reduced | body-wide glucose homeostasis (glucose and insulin tolerance tests) (weekly prednisone, endpoint): improved | grip strength, tetanic force production and aerobic exercise capacity (weekly prednisone, endpoint): improved
